Experimental data reported in PubChem BioAssay AID248 (DTP/NCI, 2004).
Values joined by “and” are separate entries in the source; they are usually repeats but may differ in a detail not shown here. Identical values can stand only once. Toxic doses and inconclusive results are not listed. No stated cut-off is given here; in the data, active means T/C of 150% or more; inactive means T/C below 125%.

Tested on: L1210 leukemia ip in BDF1 mice, survival T/C
Assay: NCI In Vivo Anticancer Drug Screen. Data for tumor model L1210 Leukemia (intraperitoneal) in B6D2F1 (BDF1) mice
Settings: endpoint: mean survival time, higher = longer survival
Procedure, shortened: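 Value reflects the ratio of survival in compound-treated mice to survival in vehicle-treated controls, with both groups carrying the same transplanted tumor.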

[1] = dose: 100.0 mg/kg/injection, schedule: Q04DX002 (ip), vehicle: Klucel (hydroxypropylcellulose) (HPC)
[2] = dose: 200.0 mg/kg/injection, schedule: Q04DX002 (ip), vehicle: Klucel (hydroxypropylcellulose) (HPC)
[3] = dose: 400.0 mg/kg/injection, schedule: Q04DX002 (ip), vehicle: Klucel (hydroxypropylcellulose) (HPC)
[4] = dose: 100.0 mg/kg/injection, schedule: Q01DX001 (ip), vehicle: saline
[5] = dose: 100.0 mg/kg/injection, schedule: Q04DX003 (ip), vehicle: saline
[6] = dose: 200.0 mg/kg/injection, schedule: Q01DX001 (ip), vehicle: saline
[7] = dose: 200.0 mg/kg/injection, schedule: Q04DX003 (ip), vehicle: saline
[8] = dose: 50.0 mg/kg/injection, schedule: Q01DX001 (ip), vehicle: saline
[9] = dose: 400.0 mg/kg/injection, schedule: Q01DX001 (ip), vehicle: saline

Measured: T/C

O=S1c2ccccc2Sc2ccccc21
inactive: dose: 100.0 mg/kg/injection, schedule: Q04DX003 (ip), vehicle: saline with Tween-80 103 % of control | dose: 200.0 mg/kg/injection, schedule: Q04DX003 (ip), vehicle: saline with Tween-80 97 % of control | dose: 400.0 mg/kg/injection, schedule: Q04DX003 (ip), vehicle: saline with Tween-80 100 % of control

CC(=O)n1ncc2ccc(N)cc21
inactive: dose: 25.0 mg/kg/injection, schedule: Q01DX009 (ip), vehicle: water 89 % of control | dose: 50.0 mg/kg/injection, schedule: Q01DX009 (ip), vehicle: water 101 % of control | dose: 100.0 mg/kg/injection, schedule: Q01DX009 (ip), vehicle: water 96 % of control | dose: 100.0 mg/kg/injection, schedule: Q04DX003 (ip), vehicle: water 100 % of control | dose: 200.0 mg/kg/injection, schedule: Q04DX003 (ip), vehicle: water 96 % of control

CSc1cccc(NC(=O)/C=C/C(=O)O)c1
inactive: dose: 75.0 mg/kg/injection, schedule: Q01DX009 (ip), vehicle: Klucel (hydroxypropylcellulose) (HPC) 98 % of control | dose: 150.0 mg/kg/injection, schedule: Q01DX009 (ip), vehicle: Klucel (hydroxypropylcellulose) (HPC) 93 % of control | dose: 300.0 mg/kg/injection, schedule: Q01DX009 (ip), vehicle: Klucel (hydroxypropylcellulose) (HPC) 93 % of control

O=C1CSCc2ccccc21
inactive: [1] 103 % of control | [2] 95 % of control | [3] 95 % of control

COC1C(OC(=O)/C=C/C=C/C=C/C=C/C(=O)O)CCC2(CO2)C1C1(C)OC1CC=C(C)C (stereo unspecified)
inactive: dose: 2.5 mg/kg/injection, schedule: Q01DX Z (ip), vehicle: methylcellulose (MC) 115 % of control | dose: 5.0 mg/kg/injection, schedule: Q01DX Z (ip), vehicle: methylcellulose (MC) 110 % of control | dose: 10.0 mg/kg/injection, schedule: Q01DX Z (ip), vehicle: methylcellulose (MC) 115 % of control | dose: 10.0 mg/kg/injection, schedule: Q01DX Z (ip), vehicle: saline 109 % of control | dose: 20.0 mg/kg/injection, schedule: Q01DX Z (ip), vehicle: methylcellulose (MC) 118 % of control | dose: 20.0 mg/kg/injection, schedule: Q01DX Z (ip), vehicle: saline 115 % of control | dose: 40.0 mg/kg/injection, schedule: Q01DX Z (ip), vehicle: methylcellulose (MC) 121 % of control | dose: 40.0 mg/kg/injection, schedule: Q01DX Z (ip), vehicle: saline 123 % of control | dose: 50.0 mg/kg/injection, schedule: Q01DX009 (ip), vehicle: saline 101 % of control | dose: 50.0 mg/kg/injection, schedule: Q04DX003 (ip), vehicle: saline 116 % of control | dose: 80.0 mg/kg/injection, schedule: Q01DX Z (ip), vehicle: saline 120 % of control | [4] 93 % of control | dose: 100.0 mg/kg/injection, schedule: Q01DX009 (ip), vehicle: saline 101 % of control | [5] 93 % of control | [6] 93 % of control | dose: 200.0 mg/kg/injection, schedule: Q01DX009 (ip), vehicle: saline 106 % of control | [7] 98 % of control

CN(C)c1ccc(C2=CC3CCCC(C2)N3C)cc1 (stereo unspecified)
inactive: dose: 12.5 mg/kg/injection, schedule: Q04DX003 (ip), vehicle: saline 100 % of control | dose: 25.0 mg/kg/injection, schedule: Q04DX003 (ip), vehicle: saline 97 % of control

Cc1ccnc(NS(=O)(=O)c2ccc(N)cc2)n1
inactive: dose: 100.0 mg/kg/injection, schedule: Q04DX002 (ip), vehicle: saline with Tween-80 93 % of control | dose: 200.0 mg/kg/injection, schedule: Q04DX002 (ip), vehicle: saline with Tween-80 101 % of control | dose: 400.0 mg/kg/injection, schedule: Q04DX002 (ip), vehicle: saline with Tween-80 93 % of control

O=C(CCCNC(=O)OCc1ccccc1)NCCCCCCNCCCCCCNC(=O)CCCNC(=O)OCc1ccccc1
inactive: [8] 95 % of control | [4] 95 % of control | [6] 98 % of control | [9] 98 % of control

OCC1OC(n2cnc3c([Se]Cc4ccccc4)ncnc32)C(O)C1O (stereo unspecified)
inactive: dose: 1.56 mg/kg/injection, schedule: Q01DX005 (ip), vehicle: saline 97 % of control | dose: 3.12 mg/kg/injection, schedule: Q01DX005 (ip), vehicle: saline 94 % of control | dose: 3.12 mg/kg/injection, schedule: Q01DX009 (ip), vehicle: saline 103 % of control | dose: 6.25 mg/kg/injection, schedule: Q01DX005 (ip), vehicle: saline 97 % of control | dose: 6.25 mg/kg/injection, schedule: Q01DX009 (ip), vehicle: saline 95 % of control | dose: 12.5 mg/kg/injection, schedule: Q01DX005 (ip), vehicle: saline 110 % of control | dose: 12.5 mg/kg/injection, schedule: Q01DX009 (ip), vehicle: saline 105 % of control

N=C1C=C(N)C(=O)c2ccccc21
inactive: dose: 0.78 mg/kg/injection, schedule: Q01DX009 (ip), vehicle: Klucel (hydroxypropylcellulose) (HPC) 103 % of control | dose: 1.56 mg/kg/injection, schedule: Q01DX009 (ip), vehicle: Klucel (hydroxypropylcellulose) (HPC) 103 % of control | dose: 3.13 mg/kg/injection, schedule: Q01DX009 (ip), vehicle: Klucel (hydroxypropylcellulose) (HPC) 107 % of control | dose: 100.0 mg/kg/injection, schedule: Q01DX009 (ip), vehicle: saline with Tween-80 101 % of control

CCCCc1[nH]ccc2c(C)c3nc4ccccc4c3cc12
inactive: [8] 96 % of control | [4] 97 % of control | [6] 96 % of control | [9] 97 % of control

COC1OCC(OC(C)=O)C(NC(C)=O)C1OC(C)=O (stereo unspecified)
inactive: [4] 100 % of control | [6] 101 % of control | [9] 111 % of control

CN(C)N=Nc1cn[nH]c1C(N)=O
inactive: dose: 25.0 mg/kg/injection, schedule: Q01DX009 (ip), vehicle: Klucel (hydroxypropylcellulose) (HPC) 117 % of control | dose: 50.0 mg/kg/injection, schedule: Q01DX009 (ip), vehicle: Klucel (hydroxypropylcellulose) (HPC) 112 % of control and 117 % of control and 118 % of control | dose: 100.0 mg/kg/injection, schedule: Q04DX003 (ip), vehicle: Klucel (hydroxypropylcellulose) (HPC) 96 % of control and 121 % of control | [5] 111 % of control | dose: 178.0 mg/kg/injection, schedule: Q01DX009 (ip), vehicle: saline 87 % of control | dose: 200.0 mg/kg/injection, schedule: Q01DX009 (ip), vehicle: Klucel (hydroxypropylcellulose) (HPC) 105 % of control and 113 % of control | dose: 200.0 mg/kg/injection, schedule: Q04DX003 (ip), vehicle: Klucel (hydroxypropylcellulose) (HPC) 98 % of control | [7] 119 % of control | dose: 267.0 mg/kg/injection, schedule: Q01DX009 (ip), vehicle: saline 91 % of control | dose: 400.0 mg/kg/injection, schedule: Q01DX009 (ip), vehicle: Klucel (hydroxypropylcellulose) (HPC) 103 % of control

CC(C)C(=O)CCC1CCCCC1
inactive: dose: 100.0 mg/kg/injection, schedule: Q01DX001 (ip), vehicle: saline with Tween-80 100 % of control | dose: 200.0 mg/kg/injection, schedule: Q01DX001 (ip), vehicle: saline with Tween-80 100 % of control | dose: 400.0 mg/kg/injection, schedule: Q01DX001 (ip), vehicle: saline with Tween-80 97 % of control

COc1ccc(/C=N/NC(=O)c2ccccc2N)cc1
inactive: [1] 98 % of control | [2] 106 % of control | [3] 106 % of control

CC[S+](CC)CC
inactive: [5] 95 % of control | [7] 95 % of control
